From patent US10377770B2 (Novartis AG, priority 2015, dated 2019)

target: C-Raf FL (full length CRAF with Y340E and Y341E activating mutations, co-expressed with h14-3-3 zeta) (Homo sapiens (Human), UniProt P04049, Y340E/Y341E); test: In vitro Raf activity determination, AlphaScreen p-MEK readout, c-Raf (C-Raf FL); assay type: biochemical; conditions: c-Raf approximately 4 nM, ATP 1 μM, pre-incubation 60 minutes, reaction 1 hour
Source text: Sf9 cells co-expressing both proteins were lysed and subjected to immobilized nickel chromatography and eluted with Imidazole. A second column (StrepII binding column) was used and eluted with desthiobiotin. Protein Tags were removed using Prescission enzyme and the protein was further purified using a flowthrough step to remove tags.
C-Raf TR refers to a truncated C-Raf protein, a Δ1-324 deletion mutant. C-Raf FL refers to the full-length C-Raf protein.
Full length MEK1 with an inactivating K97R ATP binding site mutation is utilized as a RAF substrate. The MEK1 cDNA was subcloned with an N-terminal (his)6 tag into a vector for E. Coli expression. The MEK1 substrate was purified from E. Coli lysate by nickel affinity chromatography followed by anion exchange. The final MEK1 preparation was biotinylated (Pierce EZ-Link Sulfo-NHS-LC-Biotin) and concentrated.
Assay Materials: Assay buffer is 50 mM Tris, pH 7.5, 15 mM MgCl2, 0.01% Bovine Serum Albumin (BSA) and 1 mM dithiothreitol (DTT); Stop buffer is 60 mM ethylenediaminetetraacetic acid (EDTA) and 0.01% Tween® 20; b-Raf (V600E), active; biotinylated Mek, kinase dead; Alpha Screen detection kit (available from PerkinElmer™, #6760617R); Anti phospho-MEK1/2 (available from Cell Signaling Technology, Inc. #9121); 384 well low volume assay plates (White Greiner® plates).
Assay conditions: b-Raf (V600E) approximately 4 pM; c-Raf approximately 4 nM; biotinylated Mek, kinase dead approximately 10 nM; ATP 10 μM for BRAF (V600E) and 1 μM for CRAF; Pre-incubation time with compounds 60 minutes at room temperature; Reaction time 1 or 3 hours at room temperature.
Assay protocol: Raf and biotinylated Mek (kinase dead) were combined at 2× final concentrations in assay buffer (50 mM Tris, pH 7.5, 15 mM MgCl2, 0.01% BSA and 1 mM DTT) and dispensed […] per well in assay plates (Greiner white 384 well assay plates #781207) containing […] of 40× of a Raf kinase inhibitor test compound diluted in 100% DMSO. The plate was incubated for 60 minutes at room temperature. The Raf kinase activity reaction was started by the addition of […] per well of 2×ATP diluted in assay buffer. After 3 hours (b-Raf(V600E)) or 1 hour (c-Raf). The reactions were stopped and the phosphorylated product was measured using a rabbit anti-p-MEK (Cell Signaling, #9121) antibody and the Alpha Screen IgG (ProteinA) detection Kit (PerkinElmer #6760617R), by the addition of […] to the well of a mixture of the antibody (1:2000 dilution) and detection beads (1:2000 dilution of both beads) in Stop/bead buffer (25 mM EDTA, 50 mM Tris, pH 7.5, 0.01% Tween20). The additions were carried out under dark conditions to protect the detection beads from light. A lid was placed on top of the plate and incubated for 1 hour at room temperature, after which the luminescence was read on a PerkinElmer Envision instrument.

Chain of C-Raf FL (full length CRAF with Y340E and Y341E activating mutations, co-expressed with h14-3-3 zeta) (P04049 whole entry Y340E/Y341E): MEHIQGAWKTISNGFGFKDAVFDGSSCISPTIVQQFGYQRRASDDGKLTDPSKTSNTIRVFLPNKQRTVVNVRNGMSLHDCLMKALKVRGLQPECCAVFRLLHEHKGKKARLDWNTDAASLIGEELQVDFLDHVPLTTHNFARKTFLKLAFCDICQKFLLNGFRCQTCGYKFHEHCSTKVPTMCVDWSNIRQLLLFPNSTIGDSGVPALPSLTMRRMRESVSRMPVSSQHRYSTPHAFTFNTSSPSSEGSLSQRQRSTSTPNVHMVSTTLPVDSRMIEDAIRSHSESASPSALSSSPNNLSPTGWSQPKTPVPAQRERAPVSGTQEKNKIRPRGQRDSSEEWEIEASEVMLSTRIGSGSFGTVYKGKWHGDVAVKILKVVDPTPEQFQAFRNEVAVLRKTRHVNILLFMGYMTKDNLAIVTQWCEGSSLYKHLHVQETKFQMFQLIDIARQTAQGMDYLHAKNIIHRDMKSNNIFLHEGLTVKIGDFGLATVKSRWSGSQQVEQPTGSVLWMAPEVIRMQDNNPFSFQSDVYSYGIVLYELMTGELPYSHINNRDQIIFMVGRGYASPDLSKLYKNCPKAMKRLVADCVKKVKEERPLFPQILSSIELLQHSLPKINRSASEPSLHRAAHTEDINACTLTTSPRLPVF
Chain of C-Raf FL (full length CRAF with Y340E and Y341E activating mutations, co-expressed with h14-3-3 zeta) (P63104 whole entry partner): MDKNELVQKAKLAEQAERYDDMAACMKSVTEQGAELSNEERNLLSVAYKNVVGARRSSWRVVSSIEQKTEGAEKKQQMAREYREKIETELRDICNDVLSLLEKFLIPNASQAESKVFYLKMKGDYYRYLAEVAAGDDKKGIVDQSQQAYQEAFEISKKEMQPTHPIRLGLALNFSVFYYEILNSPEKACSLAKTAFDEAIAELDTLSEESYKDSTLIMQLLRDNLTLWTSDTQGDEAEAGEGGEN

Point of comparison: `Cc1ccc(NC(=O)c2ccnc(C(F)(F)F)c2F)cc1-c1ccc2c(c1)N1CCOC[C@H]1[C@@](F)(CO)C2` [Example 395, 3-fluoro-N-(3-((4aS,5R)-5-fluoro-5-(hydroxymethyl)-1,2,4,4a,5,6-hexahydro-[1,4]oxazino[4,3-a]quinolin-9-yl)-4-methylphenyl)-2-(trifluoromethyl)isonicotinamide], IC50 0.2 nM. Against it:
- Cc1ccc(NC(=O)c2ccnc(C(C)(C)F)c2)cc1-c1ccc2c(c1)N1CCOCC1C(CS(C)(=O)=O)C2 (racemic) [Example 365, (rac)-2-(2-fluoropropan-2-yl)-N-(4-methyl-3-(5-((methylsulfonyl)methyl)-1,2,4,4a,5,6-hexahydro-[1,4]oxazino[4,3-a]quinolin-9-yl)phenyl)isonicotinamide] — the same, 0.2 nM
- CCN1C(=O)C[C@H]2COCCN2c2cc(-c3cc(NC(=O)c4ccnc(C(F)(F)F)c4)ccc3C)cnc21 [Example 130, (S)-N-(3-(7-ethyl-6-oxo-1,2,4a,5,6,7-hexahydro-4H-[1,4]oxazino[4,3-d]pyrido[2,3-b][1,4]diazepin-10-yl)-4-methylphenyl)-2-(trifluoromethyl)isonicotinamide] — 1.8-fold higher, 0.37 nM
- CCN1C(=O)CC2COCCN2c2cc(-c3cc(NC(=O)c4ccnc(C(F)(F)F)c4)ccc3C)cnc21 (racemic) [Example 128, rac-N-(3-(7-Ethyl-6-oxo-1,2,4a,5,6,7-hexahydro-4H-[1,4]oxazino[4,3-d]pyrido[2,3-b][1,4]diazepin-10-yl)-4-methylphenyl)-2-(trifluoromethyl)isonicotinamide] — 8.7-fold lower, 0.023 nM
- Cc1ccc(NC(=O)c2ccnc(C(C)(F)F)c2)cc1-c1cnc2c(c1)N1CCOC[C@@H]1[C@H](CO)C2 (racemic) [Example 116, rac-trans-2-(1,1-Difluoroethyl)-N-(3-(5-(hydroxymethyl)-1,2,4,4a,5,6-hexahydro-[1,4]oxazino[4,3-a][1,5]naphthyridin-9-yl)-4-methylphenyl)isonicotinamide] — lower, < 0.0017 nM
- Cc1ccc(NC(=O)c2ccnc(C(C)(F)F)c2)cc1-c1ccc2c(c1)N1CCOC[C@H]1[C@](F)(CO)C2 [Example 369, 2-(1,1-difluoroethyl)-N-(3-((4aS,5S)-5-fluoro-5-(hydroxymethyl)-1,2,4,4a,5,6-hexahydro-[1,4]oxazino[4,3-a]quinolin-9-yl)-4-methylphenyl)isonicotinamide] — within 1.5-fold, 0.3 nM
- Cc1ccc(NC(=O)c2ccnc(C(C)(F)F)c2)cc1-c1ccc2c(c1)N1CCOC[C@H]1[C@@](C)(C#N)C2 [Example 373, N-(3-((4aR,5S)-5-cyano-5-methyl-1,2,4,4a,5,6-hexahydro-[1,4]oxazino[4,3-a]quinolin-9-yl)-4-methylphenyl)-2-(1,1-difluoroethyl)isonicotinamide] — 2-fold higher, 0.4 nM
- Cc1ccc(NC(=O)c2ccnc(C(F)(F)F)c2)cc1-c1cnc2c(c1)N1CCOC[C@H]1C[C@@H]2O (racemic) [Example 101, rac-cis-N-(3-(6-hydroxy-1,2,4,4a,5,6-hexahydro-[1,4]oxazino[4,3-a][1,5]naphthyridin-9-yl)-4-methylphenyl)-2-(trifluoromethyl)isonicotinamide] — 7.7-fold lower, 0.026 nM
- Cc1ccc(NC(=O)c2ccnc(C(C)(F)F)c2)cc1-c1cnc2c(c1)N1CCOC[C@H]1C(F)(F)[C@@H]2O (racemic) [Example 163, rac-cis-N-(3-(5,5-difluoro-6-hydroxy-1,2,4,4a,5,6-hexahydro-[1,4]oxazino[4,3-a][1,5]naphthyridin-9-yl)-4-methylphenyl)-2-(1,1-difluoroethyl)isonicotinamide] — 10-fold lower, 0.02 nM
- Cc1ccc(NC(=O)c2ccnc(C(F)(F)F)c2F)cc1-c1cc2n(c(=O)c1)CC[C@H]1COCCN21 [Example 416, (S)-3-fluoro-N-(4-methyl-3-(8-oxo-1,2,4,4a,5,6-hexahydro-8H-pyrido[2′,1′:2,3]pyrimido[6,1-c][1,4]oxazin-10-yl)phenyl)-2-(trifluoromethyl)isonicotinamide] — 2-fold higher, 0.4 nM
- Cc1ccc(NC(=O)c2ccnc(C(C)(C)F)c2)cc1-c1cc2n(c(=O)c1)CCC1CCOCCN21 (stereo in doubt) [Example 418, (S)-2-(2-fluoropropan-2-yl)-N-(4-methyl-3-(9-oxo-1,2,5,5a,6,7-hexahydro-4H,9H-pyrido[2′,1′:2,3]pyrimido[1,6-d][1,4]oxazepin-11-yl)phenyl)isonicotinamide] — 10-fold higher, 2.1 nM
- CCN1C(=O)N2COCCC2(C)c2cc(-c3cc(NC(=O)c4cccc(C(F)(F)F)c4)cnc3C)ccc21 (centres unmarked) [Example 245, N-(5-(7-ethyl-11b-methyl-6-oxo-1,2,4,6,7,11b-hexahydro-[1,3]oxazino[3,4-c]quinazolin-10-yl)-6-methylpyridin-3-yl)-3-(trifluoromethyl) benzamide] — the same, 0.2 nM
- Cc1ccc(NC(=O)c2ccnc(C(C)(F)F)c2)cc1-c1cnc2c(c1)[C@@]1(C)CCOCC[C@@H]1C(=O)N2CCO (relative stereo) [Example 351, 2-(1,1-difluoroethyl)-N-((5a,11b-trans)-3-(7-(2-hydroxyethyl)-11b-methyl-6-oxo-1,2,4,5,5a,6,7,11b-octahydrooxepino[4,5-c][1,8]naphthyridin-10-yl)-4-methylphenyl) isonicotinamide] — 5.5-fold higher, 1.1 nM
- Cc1ccc(NC(=O)c2ccnc(C(C)(F)F)c2)cc1-c1cc2c(nn1)[C@H](O)C[C@@H]1COCCN21 (racemic) [Example 46, (rac)(trans)-2-(1,1-difluoroethyl)-N-(3-(5-hydroxy-5,6,6a,7,9,10-hexahydropyridazino[3′,4′:5,6]pyrido[2,1-c][1,4]oxazin-2-yl)-4-methylphenyl)isonicotinamide] — 14-fold lower, 0.014 nM
- Cc1ccc(NC(=O)c2cncc(C(F)(F)F)c2)cc1-c1cc(F)c2c(c1)N1CCOC[C@@H]1[C@](F)(CO)C2 [Example 440, N-(3-((4aR,5S)-5,7-difluoro-5-(hydroxymethyl)-1,2,4,4a,5,6-hexahydro-[1,4]oxazino[4,3-a]quinolin-9-yl)-4-methylphenyl)-5-(trifluoromethyl) nicotinamide] — within 1.5-fold, 0.3 nM
- Cc1ccc(NC(=O)c2cc(C(F)(F)F)ccn2)cc1-c1cnc2c(c1)N1CCOC[C@H]1C[C@@H]2O (racemic) [Example 147, rac-cis-N-(3-(6-hydroxy-1,2,4,4a,5,6-hexahydro-[1,4]oxazino[4,3-a][1,5]naphthyridin-9-yl)-4-methylphenyl)-4-(trifluoromethyl)picolinamide] — 77-fold lower, 0.0026 nM
- Cc1ccc(NC(=O)c2ccnc(C(C)(F)F)c2)cc1-c1cnc2c(c1)N1CCOC[C@@H]1C(F)(F)[C@@H]2O [Example 165, N-(3-((4aR,6R)-5,5-difluoro-6-hydroxy-1,2,4,4a,5,6-hexahydro-[1,4]oxazino[4,3-a][1,5]naphthyridin-9-yl)-4-methylphenyl)-2-(1,1-difluoroethyl)isonicotinamide] — 3.1-fold higher, 0.62 nM
- CCN1C(=O)OC2COCCC2c2cc(-c3cc(NC(=O)c4cccc(C(F)(F)F)c4F)cnc3C)cnc21 [Example 300, N-(5-((4aS,11bR- cis)-7-ethyl-6-oxo-2,4,4a,6,7,11b-hexahydro-1H-pyrano[4,3-f]pyrido[2,3-d][1,3]oxazepin-10-yl)-6-methylpyridin-3-yl)-2-fluoro-3-(trifluoromethyl) benzamide] — the same, 0.2 nM
- CCN1C(=O)[C@@H]2[C@H]3COC[C@H]3[C@@H]2c2cc(-c3cc(NC(=O)c4cccc(C(F)(F)F)c4)cnc3C)cnc21 [Example 272, N-(5-((6aS, 6bS, 9aS, 9bS)-5-ethyl-6-oxo-5,6,6a,6b,7,9,9a,9b-octahydrofuro[3′,4′: 3,4]cyclobuta[1,2-c][1,8]naphthyridin-2-yl)-6-methylpyridin-3-yl)-3-(trifluoromethyl) benzamide] — 2.5-fold higher, 0.5 nM
- CCN1C[C@@H]2COCCN2c2cc(-c3cc(NC(=O)c4ccnc(C(F)(F)F)c4)ccc3C)cnc2C1=O [Example 500, (R)-N-(3-(6-ethyl-7-oxo-1,2,4a,5,6,7-hexahydro-4H-[1,4]oxazino[4,3-a]pyrido[2,3-f][1,4]diazepin-10-yl)-4-methylphenyl)-2-(trifluoromethyl)iso-nicotinamide] — 2-fold lower, 0.1 nM
